According to patent US8748395B2, “Cell-permeable peptide inhibitors of the JNK signal transduction pathway” (Xigen Inflammation Ltd., priority 2006, dated 2014):
“Also recorded” adds a separate entry of the source. Square brackets hold non-standard residues; d marks the D form. Peptide text beside a SMILES is read from it.

Assays:
guinea pigs = assay: Treatment of noise trauma, hearing threshold shifts by auditory brainstem response; format: in vivo
Procedure: Changes of the hearing threshold level (dB sound pressure level) in guinea pigs following noise trauma (120 dB at 6 kHz during 30 minutes) at 8 kHz, the maximally impacted frequency, measured 20 minutes (temporary threshold shift, TTS, grey) and 15 days post noise exposure (permanent threshold shift). Guinea pigs received D-TAT-IB1(s) in a hyaluronic acid gel deposited onto the cochlear round window membrane either 30 minutes before, 30 minutes after or 4 hours after noise trauma; untreated ears served as control. TTS was measured 20 minutes post noise trauma, while PTS (black), which corresponds to permanent hearing loss, was determined after 15 days.
D-TAT-IB1(s) was applied onto the round window membrane of the cochlea of 3 groups of guinea pigs (each group with 6 animals) in 2 microliters of a gel formulation of 2.6% buffered hyaluronic acid (Hylumed, Genzyme Corp.) at a concentration of 100 μM either 30 minutes before noise trauma (120 dB at 6 kHz during 30 minutes) or 30 minutes or 4 hours thereafter. Untreated ears served as control. Hearing threshold shifts were evaluated by auditory brainstem response measurements 20 minutes after noise trauma (temporary threshold shift, TTS) and 15 days following the trauma (permanent threshold shift, PTS). […] Thus, D-TAT-IB1(s) is a very effective otoprotective compound in case of noise trauma.

[1] = tested on: endogenous JNK activity in HepG2 cells; assay: Inhibition of endogenous JNK activity in HepG2 cells, AlphaScreen all-in one well approach; format: cell-based
Procedure: HepG2 cells were seeded at 3'000 cells/well the day prior the experiment. Then, increasing concentrations of either interleukin-1β [IL-1β(ν)] or tumor necrosis factor α [TNFα(●)] (a) were added to activate JNK for 30 minutes. Cells were lysed in 20 mM Hepes, 0.5% Tween pH 7.4 and processed for AlphaScreen JNK. (b) Z′ for the JNK activity induced by 10 ng/ml IL-1β and measured in 384 wells/plate (n=96). (c) Inhibition of endogenous IL-1β-induced JNK activity with chemical JNK inhibitors [staurosporin (°) and SP600125 (●)]. (d) Effect of peptidic inhibitors L-TAT-IB1(s) according to SEQ ID NO: 9 [here abbreviated as L-JNKi (ν)) and D-TAT-IB1(s) according to SEQ ID NO: 11 (here abbreviated as D-JNKi (♦)) and JBDs (●) (corresponds to L-JNKI without the TAT sequence)] on IL-1α dependent JNK activity. All panels are representative of three independent experiments (n=3).
Methods: Alphascreen Kinase Assay
Principle: AlphaScreen is a non-radioactive bead-based technology used to study biomolecular interactions in a microplate format. The acronym ALPHA stands for Amplified Luminescence Proximity Homogenous Assay. […]
Kinase reagents (B-GST-cJun, anti P-cJun antibody and active JNK3) were first diluted in kinase buffer (20 mM Tris-HCl pH 7.6, 10 mM MgCl2, 1 mM DTT, 100 μM Na3VO4, 0.01% Tween-20) and added to wells (15 μl). […] AlphaScreen signal was analyzed directly on the Fusion or En Vision apparatus.

male ICR-CD1 mice = assay: Neuroprotection after iv administration against focal cerebral ischaemia, transient MCAO model; format: in vivo
Procedure: Transient ischemia in adult mice. Using male ICR-CD1 mice (6 weeks old; 18-37 g; Harlan), we provoked ischemia by introducing a filament from the common carotid artery into the internal carotid and advancing it into the arterial circle, thereby occluding the middle cerebral artery. We measured regional cerebral blood flow by laser Doppler flowmetry, with a probe fixed on the skull throughout the ischemia until 10 min after reperfusion. Rectal temperature was measured and maintained at 37° C. The mice were killed 48 h after reperfusion. Serial cryostat sections 20 μm thick were traced using a computer-microscope system equipped with the Neurolucida program (MicroBrightField) and the volumes of the ischemic area and of the whole brain were calculated (blinded) with the Neuroexplorer program. XG-102 0.3=0.3 mg/kg, XG-102 1=1 mg/kg, XG-102 5=5 mg/kg
The infarct volume sizes (mm^3) after bolus iv administration of placebo and XG-102 0.3, […] 6 hours after reperfusion (30 minutes clamp) in an adult mice model were as follows.

## CC(C)C[C@@H](NC(=O)[C@@H](Cc1ccccc1)NC(=O)[C@H]1CCCN1C(=O)[C@@H](CCC(N)=O)NC(=O)[C@H](NC(=O)[C@H]1CCCN1C(=O)[C@@H](CCCNC(=N)N)NC(=O)[C@@H](CO)NC(=O)[C@@H](CCC(N)=O)NC(=O)[C@H](N)CC(=O)O)C(C)C)C(=O)N[C@H](CC(N)=O)C(=O)N[C@H](CC(C)C)C(=O)N[C@@H](C(=O)N[C@@H](C(=O)N1CCC[C@@H]1C(=O)N[C@H](CCCNC(=N)N)C(=O)N[C@H](CCCCN)C(=O)N1CCC[C@@H]1C(=O)N[C@H](CCCNC(=N)N)C(=O)N1CCC[C@@H]1C(=O)N1CCC[C@@H]1C(=O)N[C@H](CCCNC(=N)N)C(=O)N[C@H](CCCNC(=N)N)C(=O)N[C@H](CCCNC(=N)N)C(=O)N[C@H](CCC(N)=O)C(=O)N[C@H](CCCNC(=N)N)C(=O)N[C@H](CCCNC(=N)N)C(=O)N[C@H](CCCCN)C(=O)N[C@H](CCCCN)C(=O)N[C@H](CCCNC(=N)N)C(=O)NCC(=O)O)[C@H](C)O)[C@H](C)O [D-TAT-IB1(s)] (H-[dD][dQ][dS][dR][dP][dV][dQ][dP][dF][dL][dN][dL][dT][dT][dP][dR][dK][dP][dR][dP][dP][dR][dR][dR][dQ][dR][dR][dK][dK][dR]G-OH)
Guinea pigs; 100 μM in hyaluronic acid gel on round window membrane, 30 minutes before, 30 minutes or 4 hours after noise trauma
  protection against permanent hearing loss (PTS, 15 days): protects substantially against permanent hearing loss; also recorded: protected against permanent hearing loss even if applied after exposure to excessive noise
Guinea pigs; administration 30 minutes and 4 hours post trauma, 8 kHz
  PTS in treated ears versus untreated control ears: significantly lower
[1]
  inhibition of IL-1β-induced endogenous JNK activity: effectively inhibits JNK activity, even better than L-TAT-IB1(s)
Male ICR-CD1 mice; 0.3 mg/kg bolus iv 6 hours after reperfusion (30 minutes clamp), n = 5
  infarct volume sizes, moyenne: 16 mm^3
Male ICR-CD1 mice; 1 mg/kg bolus iv 6 hours after reperfusion (30 minutes clamp), n = 1
  infarct volume sizes, moyenne: 16 mm^3
Male ICR-CD1 mice; XG102 3, bolus iv 6 hours after reperfusion (30 minutes clamp), n = 5
  infarct volume sizes, moyenne: 15 mm^3
Male ICR-CD1 mice; i.v. administration, mice killed 48 h after reperfusion
  neuroprotection: provides efficient neuroprotection
